pEC50: −log10 of the molar value. Read-outs that look alike come from different tables or passages of the source. Starred links: 1 amine or outer side, 2 acyl side, 3 side chain; linkers in the order of their positions; H or OH if unused. Non-standard residues stand in square brackets, D forms with d. Groups on a side chain read outwards from the residue. *: point of attachment. C20 diacid = O=C(O)CCCCCCCCCCCCCCCCCCC(=O)*; C18 diacid = O=C(O)CCCCCCCCCCCCCCCCC(=O)*; γGlu = O=C(O)[C@H](CCC(=O)[*:2])N[*:1]; αMe4Pal = C[C@](N)(Cc1ccncc1)C(=O)O; αMeY = C[C@](N)(Cc1ccc(O)cc1)C(=O)O; 4Pal = N[C@@H](Cc1ccncc1)C(=O)O; αMeL = CC(C)C[C@](C)(N)C(=O)O; Orn = NCCC[C@H](N)C(=O)O; AEEA = NCCOCCOCC(=O)O; Aib = CC(C)(N)C(=O)O
Legend:
Assay type in all cases: cell-based
hGIPR [1] = biological target: T1, hGIPR (Homo sapiens, UniProt P48546); assay: Functional cAMP activation in the presence of 0.1% casein (no HSA); conditions: read-out: Relative cAMP EC50, hGIPR;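 note: intracellular cAMP rise after 30 min at 37 °C read by HTRF against a standard curve, scaled between buffer alone (0%) and top control ligand concentration (100%), four-parameter fit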
T1 sequence (P48546 22-466): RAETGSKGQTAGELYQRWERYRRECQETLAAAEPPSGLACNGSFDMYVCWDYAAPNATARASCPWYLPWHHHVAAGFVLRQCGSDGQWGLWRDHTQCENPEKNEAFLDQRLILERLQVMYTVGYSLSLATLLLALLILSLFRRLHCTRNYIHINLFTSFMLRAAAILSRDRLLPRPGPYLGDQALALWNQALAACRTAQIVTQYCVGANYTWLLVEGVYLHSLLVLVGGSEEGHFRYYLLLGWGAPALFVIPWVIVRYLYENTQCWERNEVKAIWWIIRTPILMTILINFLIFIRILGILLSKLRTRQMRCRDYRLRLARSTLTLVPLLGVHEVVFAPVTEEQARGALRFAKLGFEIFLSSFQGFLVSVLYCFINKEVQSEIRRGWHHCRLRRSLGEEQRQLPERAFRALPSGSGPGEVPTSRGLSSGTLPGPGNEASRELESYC

hGLP-1R [2] = biological target: T2, hGLP-1R (Homo sapiens, UniProt P43220); assay: Functional cAMP activity in the presence of 1% HSA; conditions: read-out: cAMP Rel EC50, hGLP-1R
human GcgR = human GcgR (Homo sapiens, UniProt P47871); assay: Functional cAMP activity in the presence of 1% HSA; conditions: read-out: cAMP Rel EC50, hGcgR
hGIPR [3] = biological target: T1, hGIPR; assay: Functional cAMP activity in the presence of 1% HSA; conditions: read-out: cAMP Rel EC50, hGIPR
hGLP-1R [4] = biological target: T2, hGLP-1R; assay: Functional cAMP activation in the presence of 0.1% casein (no HSA); conditions: read-out: Relative cAMP EC50, hGLP-1R;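 for Relative cAMP EC50, hGLP-1R: intracellular cAMP rise after 30 min at 37 °C read by HTRF, normalized between buffer only (0%) and maximal control ligand (100%), four-parameter variable-slope fit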;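 for Relative cAMP EC50, hGcgR: intracellular cAMP rise after 30 min at 37 °C, read by HTRF against a cAMP standard curve, scaled from buffer only (0%) to maximal control ligand response (100%)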
hGcgR = hGcgR (Homo sapiens, UniProt P47871); assay: as above; conditions: read-out: Relative cAMP EC50, hGcgR;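 note: intracellular cAMP rise after 30 min at 37 °C, read by HTRF against a cAMP standard curve, scaled from buffer only (0%) to maximal control ligand response (100%)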
[5] = in the presence of 0.1% casein (no HSA), geometric mean

T2 sequence (P43220 24-463): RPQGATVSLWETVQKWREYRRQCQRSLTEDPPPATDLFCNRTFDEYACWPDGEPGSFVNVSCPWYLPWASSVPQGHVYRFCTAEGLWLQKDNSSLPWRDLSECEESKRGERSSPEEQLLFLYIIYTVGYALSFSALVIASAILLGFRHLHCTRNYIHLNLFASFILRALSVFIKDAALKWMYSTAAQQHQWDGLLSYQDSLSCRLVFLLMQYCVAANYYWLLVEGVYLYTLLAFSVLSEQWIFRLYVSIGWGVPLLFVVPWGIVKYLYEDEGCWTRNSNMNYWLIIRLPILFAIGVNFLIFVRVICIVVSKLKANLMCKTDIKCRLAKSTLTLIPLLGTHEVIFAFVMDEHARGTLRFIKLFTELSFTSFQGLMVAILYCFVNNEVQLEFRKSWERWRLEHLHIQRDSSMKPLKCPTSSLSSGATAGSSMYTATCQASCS
human GcgR, sequence (P47871 26-477): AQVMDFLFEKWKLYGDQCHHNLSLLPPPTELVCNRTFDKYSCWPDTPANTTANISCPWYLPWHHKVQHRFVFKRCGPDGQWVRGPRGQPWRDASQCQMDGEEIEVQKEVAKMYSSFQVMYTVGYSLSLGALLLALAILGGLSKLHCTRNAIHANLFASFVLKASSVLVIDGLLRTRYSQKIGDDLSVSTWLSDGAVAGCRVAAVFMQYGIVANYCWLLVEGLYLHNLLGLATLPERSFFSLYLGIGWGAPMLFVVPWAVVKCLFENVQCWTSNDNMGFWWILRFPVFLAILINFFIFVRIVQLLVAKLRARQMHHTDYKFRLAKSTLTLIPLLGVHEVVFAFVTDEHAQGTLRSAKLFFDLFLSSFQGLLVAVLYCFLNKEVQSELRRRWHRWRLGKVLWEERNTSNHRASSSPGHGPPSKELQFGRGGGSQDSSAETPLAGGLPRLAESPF
hGcgR, sequence (P47871 26-477): as above

Substance	pEC50 (hGIPR [1]; [5])	pEC50 (hGLP-1R [2])	pEC50 (human GcgR)	pEC50 (hGIPR [3])	pEC50 (hGLP-1R [4]; [5])	pEC50 (hGcgR; [5])	pEC50 (hGIPR [1])	pEC50 (hGLP-1R [4])	pEC50 (hGcgR)
H-Y[Aib]QGTFTSDFS[Orn][αMeL]LDKK([AEEA-γGlu-C18 diacid])AQ[αMe4Pal]AFIE[αMeY]LIEGGPSSGAPPPSGS-NH2 [Example 845]	9.75	7.05	6.69	7.63	9.79	9.20			
H-Y[Aib]QGTFTSDFS[Orn][αMeL]LDKK([AEEA-γGlu-C18 diacid])AQ[αMe4Pal]DFIEYLIE[Aib]GPSSGAPPPSGS-NH2 [Example 880]	9.94	6.03	6.25	7.12	8.11	8.45			
H-Y[Aib]QGTFTSDFS[Orn][αMeL]LDKK([AEEA-γGlu-C18 diacid])AQ[αMe4Pal]EFIEYLIE[Aib]GPSSGAPPPSGS-NH2 [Example 879]	9.77	6.23	6.48	7.70	8.40	8.67			
H-Y[Aib]QGTFTSDFS[Orn][αMeL]LDKK([AEEA-γGlu-C20 diacid])AQ[Aib]AFIEWLLAGGPSSGEPPPSGE-NH2 [Example 103]	9.70	6.32	5.59	7.45	8.49	7.98			
H-Y[Aib]QGTFTSDFS[Orn][αMeL]LDKK([AEEA-γGlu-C20 diacid])AQ[Aib]AFIEWLLEGGPSSGAPPPEGE-NH2 [Example 101]	9.36	5.96	5.55	6.88	8.37	8.00			
H-Y[Aib]QGTFTSDFS[Orn][αMeL]LDKK([AEEA-γGlu-C20 diacid])AQ[Aib]AFIEYLLAGGPSSGAPPPSEG-NH2 [Example 60]	9.87	6.39	5.92	7.48	8.71	8.05			
H-Y[Aib]QGTFTSDFS[Orn][αMeL]LDKK([AEEA-γGlu-C20 diacid])AQ[Aib]AFIEYLLAGGPSSGAPPPSGD-NH2 [Example 81]	9.61	6.37	5.80	7.30	8.66	8.11			
H-Y[Aib]QGTFTSDFS[Orn][αMeL]LDKK([AEEA-γGlu-C20 diacid])AQ[Aib]AFIEYLLAGGPSSGAPPPSGE-NH2 [Example 82]	9.52	6.40	5.97	7.06	8.45	8.16			
H-Y[Aib]QGTFTSDFS[Orn][αMeL]LDKK([AEEA-γGlu-C20 diacid])AQ[Aib]AFIEYLLAGGPSSGAPPPSGS-NH2 [Example 76]	9.71	6.36	5.65	7.34	8.65	7.95			
H-Y[Aib]QGTFTSDFS[Orn][αMeL]LDKK([AEEA-γGlu-C20 diacid])AQ[Aib]AFIEYLLAGGPSSGAPPPSGSE-NH2 [Example 84]	9.68	6.15	5.64	7.24	8.79	8.07			
H-Y[Aib]QGTFTSDFS[Orn][αMeL]LDKK([AEEA-γGlu-C20 diacid])AQ[Aib]AFIEYLLAGGPSSGAPPPSGS[AEEA]-NH2 [Example 83]	9.73	6.19	5.90	7.04	8.55	7.99			
H-Y[Aib]QGTFTSDFS[Orn][αMeL]LDKK([AEEA-γGlu-C20 diacid])AQ[Aib]AFIEYLLAGGPSSGEPPPEGE-NH2 [Example 102]	9.23	5.97	5.57	6.80	8.47	8.01			
H-Y[Aib]QGTFTSDFS[Orn][αMeL]LDKK([AEEA-γGlu-C20 diacid])AQ[Aib]AFIEYLLAGGPSSGEPPPSGS-NH2 [Example 92]	9.67	6.13	5.60	7.21	8.68	7.92			
H-Y[Aib]QGTFTSDFS[Orn][αMeL]LDKK([AEEA-γGlu-C20 diacid])AQ[Aib]AFIEYLLAGGTSSGEPPPSGE-NH2 [Example 106]	9.46	6.01	5.70	7.04	8.40	8.20			
H-Y[Aib]QGTFTSDFS[Orn][αMeL]LDKK([AEEA-γGlu-C20 diacid])AQ[Aib]AFIEYLLEGGPSSGEPPPSEG-NH2 [Example 59]	9.27	5.86	5.67	6.78	8.32	8.18			
H-Y[Aib]QGTFTSDFS[Orn][αMeL]LDKK([AEEA-γGlu-C20 diacid])AQ[Aib]AFIEYLLE[Aib]GPSSGAPPPSEG-NH2 [Example 61]	9.91	6.15	5.88	7.26	8.69	8.45			
H-Y[Aib]QGTFTSDFS[Orn][αMeL]LDKK([AEEA-γGlu-C20 diacid])AQ[Aib]AFIEYLLE[Aib]GPSSGAPPPSGS-NH2 [Example 73]	9.94	6.09	5.82	7.24	8.61	8.34			
H-Y[Aib]QGTFTSDFS[Orn][αMeL]LDKK([AEEA-γGlu-γGlu-C18 diacid])AQ[Aib]AFIEYLLE[Aib]GHSSGAPPPSGS-NH2 [Example 243]	9.75	6.21	6.15	7.92	8.19	8.16			
H-Y[Aib]QGTFTSDFS[Orn][αMeL]LDKK([γGlu-AEEA-γGlu-C18 diacid])AQ[Aib]AFIEYLLE[Aib]GESSGAPPPSGS-NH2 [Example 244]	10.01	6.19	5.91	7.73	8.11	8.32			
H-Y[Aib]QGTFTSDFS[Orn][αMeL]LDKK([γGlu-AEEA-γGlu-C18 diacid])AQ[Aib]AFIEYLLE[Aib]GHSSGAPPPSGS-NH2 [Example 245]	10.16	6.27	5.95	7.98	8.22	8.15			
H-Y[Aib]QGTFTSDFS[Orn][αMeL]LDKK([γGlu-AEEA-γGlu-C18 diacid])AQ[Aib]AFIEYLLE[Aib]GPSSGAPPPSG[4Pal]-NH2 [Example 277]	10.17	6.19	5.77	7.88	8.25	7.97			
H-Y[Aib]QGTFTSDFS[Orn][αMeL]LDKK([γGlu-γGlu-C18 diacid])AQ[Aib]AFIEYLLEGGPSSG[Aib]PPPGGS-NH2 [Example 771]		6.18	6.02	7.35			9.63	8.36	8.30

Reference: US20240270821A1, “GIP/GLP1/GCG TRI-RECEPTOR AGONISTS AND USES THEREOF” (priority 2023, published 2024)
